Test results published in US8986737B2, “Antibiotic microspheres for treatment and prevention of osteomyelitis and enhancement of bone regrowth” (Wm. Marsh Rice University, priority 2002, dated 2015).
Values after ≈ are worked out from the molar mass of the structure shown. Like-named read-outs stand apart in the source and are kept apart here.

Test system: S. aureus UAMS-1 (ATCC 49230)
Assay: MIC and MBC determination by standard dilution methods
Assay type: cell-based, Staphylococcus aureus
Description: The strain of S. aureus used in this study, UAMS-1, was isolated from a patient with osteomyelitis and deposited at the American Type Culture Collection as strain ATCC 49230. The bacteria were prepared from overnight cultures grown in tryptic soy broth at 37° C. with aeration. Cells were harvested by centrifugation, washed with sterile physiological saline, and resuspended to a final concentration of 2×10^8 CFU/ml (OD of 60% transmittance). Cell suspensions were prepared on the day of surgery and held on ice until implanted.
Minimum inhibitory concentration (MIC) and minimum bactericidal concentration (MBC) for the two antibiotics tested, tobramycin and cefazolin, were determined by standard dilution methods published by the National Committee for Clinical Laboratory Standards. Briefly, S. aureus cells were grown and diluted to 0.5 McFarland turbidity standard, approximately 2×10^8 cells/ml. The cells were mixed with either of the two antibiotics tested, at concentrations ranging from 2 μg/ml to 64 μg/ml. The following day, the cultures were examined for turbidity to allow determination of MIC values. After this, sample clear cultures were plated to determine the MBC, and colonies counts were done the next day.
Minimum inhibitory concentration and minimum bactericidal concentration for tobramycin was determined as previously described above, by standard dilution methods published by the National Committee for Clinical Laboratory Standards.

[1] = Staphylococcus aureus, ATCC49230, read-out: MBC
[2] = Staphylococcus aureus, ATCC49230, read-out: MIC

## Cc1nnc(SCC2=C(C(=O)O)N3C(=O)[C@@H](NC(=O)Cn4cnnn4)[C@H]3SC2)s1 [Cefazolin]
[1]
  MBC: 32 mg/L (≈ 70.4 µM)
[2]
  MIC: 2 mg/L (≈ 4.4 µM)

## NC[C@H]1O[C@H](O[C@H]2[C@H](O)[C@@H](O[C@H]3O[C@H](CO)[C@@H](O)[C@H](N)[C@H]3O)[C@H](N)C[C@@H]2N)[C@H](N)C[C@@H]1O [Tobramycin]
  MBC: 16 mg/L (≈ 34.2 µM)
  MIC: 4 to 8 mg/L
[1]
  MBC: 16 mg/L (≈ 34.2 µM)
[2]
  MIC: 4 to 8 mg/L (≈ 8.56 to 17.1 µM)
